# Source: US12172995B2, “Substituted indole and indazole compounds” (BRISTOL-MYERS SQUIBB COMPANY, priority 2018, dated 2024)
# How the values were obtained:
# Type in all cases: cell-based
# human TLR9 = molecular target: T1, human TLR9 (Homo sapiens, UniProt Q9NR96); experiment: TLR9 inhibition reporter assay (HEK-Blue SEAP); details: HEK-Blue cells overexpressing human TLR9, stimulated with ODN2006 5 nM, 22 hour incubation
# T1 construct: host or cells: HEK-Blue cells
# T1 sequence (Q9NR96 26-1032): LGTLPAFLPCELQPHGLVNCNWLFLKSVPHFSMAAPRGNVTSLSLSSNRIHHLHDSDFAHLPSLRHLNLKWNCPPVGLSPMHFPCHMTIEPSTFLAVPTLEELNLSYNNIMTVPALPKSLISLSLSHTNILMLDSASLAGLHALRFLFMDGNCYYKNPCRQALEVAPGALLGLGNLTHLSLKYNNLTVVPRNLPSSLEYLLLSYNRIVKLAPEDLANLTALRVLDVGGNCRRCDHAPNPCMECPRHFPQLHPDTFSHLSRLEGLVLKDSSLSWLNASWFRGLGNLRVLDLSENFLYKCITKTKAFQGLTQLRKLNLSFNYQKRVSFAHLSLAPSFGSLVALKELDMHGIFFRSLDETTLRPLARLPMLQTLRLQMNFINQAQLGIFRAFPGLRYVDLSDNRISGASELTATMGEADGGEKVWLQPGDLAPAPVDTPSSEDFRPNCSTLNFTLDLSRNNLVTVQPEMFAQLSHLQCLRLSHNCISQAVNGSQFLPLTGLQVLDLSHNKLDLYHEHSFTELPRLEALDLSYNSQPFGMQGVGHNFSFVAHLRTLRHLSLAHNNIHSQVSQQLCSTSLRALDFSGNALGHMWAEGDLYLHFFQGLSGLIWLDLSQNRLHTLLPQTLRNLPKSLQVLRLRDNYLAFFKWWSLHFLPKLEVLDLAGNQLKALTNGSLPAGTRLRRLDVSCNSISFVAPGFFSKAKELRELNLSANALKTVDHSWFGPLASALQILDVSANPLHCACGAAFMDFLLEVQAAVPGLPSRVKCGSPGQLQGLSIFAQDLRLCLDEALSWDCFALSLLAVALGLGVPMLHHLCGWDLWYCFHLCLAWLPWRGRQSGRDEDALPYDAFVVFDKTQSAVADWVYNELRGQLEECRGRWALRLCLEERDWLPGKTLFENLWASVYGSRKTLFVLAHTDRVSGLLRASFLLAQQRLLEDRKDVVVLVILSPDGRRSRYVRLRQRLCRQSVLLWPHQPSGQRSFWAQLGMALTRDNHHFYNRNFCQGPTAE
# Procedure, shortened: (§1)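 Percent inhibition reflects SEAP reduction after 22 h at 37° C, relative to agonist-plus-DMSO and known-inhibitor controls. Compounds (0.05 nM to 50 μM) were added 30 min before agonist: TLR9 cells received ODN2006 5 nM, TLR8 cells R848 15.9 μM, TLR7 cells gardiquimod 7.5 μM; human receptor-expressing HEK-Blue reporter lines.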
# human TLR8 = molecular target: T2, human TLR8 (Homo sapiens, UniProt Q9NR97); experiment: TLR8 inhibition reporter assay (HEK-Blue SEAP); details: HEK-Blue cells overexpressing human TLR8, stimulated with R848 15.9 μM, 22 hour incubation
# T2 construct: host or cells: HEK-Blue cells
# T2 sequence (Q9NR97 27-1041): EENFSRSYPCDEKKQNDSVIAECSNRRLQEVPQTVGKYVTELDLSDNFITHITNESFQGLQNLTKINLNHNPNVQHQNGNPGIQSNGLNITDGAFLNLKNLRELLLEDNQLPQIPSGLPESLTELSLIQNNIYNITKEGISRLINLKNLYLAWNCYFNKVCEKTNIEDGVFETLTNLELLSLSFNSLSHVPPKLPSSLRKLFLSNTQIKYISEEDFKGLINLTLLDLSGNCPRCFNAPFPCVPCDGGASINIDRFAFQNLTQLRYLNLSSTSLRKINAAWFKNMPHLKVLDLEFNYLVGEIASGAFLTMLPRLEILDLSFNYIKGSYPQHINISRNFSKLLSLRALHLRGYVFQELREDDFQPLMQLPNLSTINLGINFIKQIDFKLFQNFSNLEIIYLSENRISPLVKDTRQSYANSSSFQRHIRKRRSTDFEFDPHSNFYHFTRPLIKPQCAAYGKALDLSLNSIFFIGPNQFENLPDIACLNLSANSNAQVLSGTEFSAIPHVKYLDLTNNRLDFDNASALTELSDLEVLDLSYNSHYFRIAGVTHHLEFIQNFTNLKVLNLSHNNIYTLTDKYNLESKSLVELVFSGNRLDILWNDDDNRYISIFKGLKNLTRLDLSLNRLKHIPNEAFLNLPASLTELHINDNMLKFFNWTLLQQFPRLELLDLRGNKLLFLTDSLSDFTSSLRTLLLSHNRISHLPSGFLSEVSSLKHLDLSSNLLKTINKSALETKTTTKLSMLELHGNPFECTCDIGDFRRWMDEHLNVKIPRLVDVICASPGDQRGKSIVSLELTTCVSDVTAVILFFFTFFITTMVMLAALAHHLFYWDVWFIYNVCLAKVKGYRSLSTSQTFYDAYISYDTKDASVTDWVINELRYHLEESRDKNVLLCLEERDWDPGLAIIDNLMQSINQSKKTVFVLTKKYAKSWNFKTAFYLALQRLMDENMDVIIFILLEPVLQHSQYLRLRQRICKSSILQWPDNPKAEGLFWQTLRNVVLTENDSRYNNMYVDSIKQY
# Procedure, shortened: as §1
# human TLR7 = molecular target: T3, human TLR7 (Homo sapiens, UniProt Q9NYK1); experiment: TLR7 inhibition reporter assay (HEK-Blue SEAP); details: HEK-Blue cells overexpressing human TLR7, stimulated with gardiquimod 7.5 μM, 22 hour incubation
# T3 construct: host or cells: HEK-Blue cells
# T3 sequence (Q9NYK1 27-1049): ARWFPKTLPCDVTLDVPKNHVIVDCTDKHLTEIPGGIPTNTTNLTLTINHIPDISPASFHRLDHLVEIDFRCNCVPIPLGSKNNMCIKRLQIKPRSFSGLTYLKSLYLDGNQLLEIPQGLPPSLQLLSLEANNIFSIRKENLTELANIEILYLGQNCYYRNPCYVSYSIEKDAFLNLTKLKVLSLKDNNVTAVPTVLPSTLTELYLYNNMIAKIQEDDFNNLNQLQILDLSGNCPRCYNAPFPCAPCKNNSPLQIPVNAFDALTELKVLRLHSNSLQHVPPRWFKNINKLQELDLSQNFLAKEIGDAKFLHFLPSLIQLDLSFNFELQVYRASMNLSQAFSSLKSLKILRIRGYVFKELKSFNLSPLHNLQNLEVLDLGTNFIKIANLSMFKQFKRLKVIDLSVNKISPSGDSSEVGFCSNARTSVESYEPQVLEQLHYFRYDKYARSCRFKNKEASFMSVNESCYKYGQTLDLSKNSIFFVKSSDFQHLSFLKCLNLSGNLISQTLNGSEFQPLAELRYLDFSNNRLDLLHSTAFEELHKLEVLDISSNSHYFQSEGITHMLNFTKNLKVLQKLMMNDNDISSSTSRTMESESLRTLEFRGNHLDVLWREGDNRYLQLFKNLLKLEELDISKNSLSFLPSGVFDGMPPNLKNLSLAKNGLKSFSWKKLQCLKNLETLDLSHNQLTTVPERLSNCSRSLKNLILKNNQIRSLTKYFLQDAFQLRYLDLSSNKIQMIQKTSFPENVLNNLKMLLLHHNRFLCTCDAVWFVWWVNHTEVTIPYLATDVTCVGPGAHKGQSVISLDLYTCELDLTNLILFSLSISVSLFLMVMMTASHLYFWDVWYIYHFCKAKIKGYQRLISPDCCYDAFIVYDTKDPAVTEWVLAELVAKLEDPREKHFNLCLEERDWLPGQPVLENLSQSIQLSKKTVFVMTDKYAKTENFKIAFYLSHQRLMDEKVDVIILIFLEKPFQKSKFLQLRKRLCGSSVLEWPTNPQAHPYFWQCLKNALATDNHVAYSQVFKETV
# Procedure, shortened: as §1
IC50 (human TLR9),IC50 (human TLR8),IC50 (human TLR7),Structure (SMILES)
3.13 µM,0.0008 µM,0.0177 µM,"CCCN1CCC(c2n[nH]c3cc(-c4cc(C)c5ncnn5c4)c(C)cc23)CC1 [Example 22, 8-methyl-6-(5-methyl-3-(1-propylpiperidin-4-yl)-1H-indazol-6-yl)-[1,2,4]triazolo[1,5-a]pyridine]"
6.63 µM,0.0029 µM,0.0434 µM,"Cc1cc2c(C3CCN(CC(=O)N(C)C)CC3)n[nH]c2cc1-c1cc(C)c2ncnn2c1 [Example 23, N,N-dimethyl-2-(4-(5-methyl-6-(8-methyl-[1,2,4]triazolo[1,5-a]pyridin-6-yl)-1H-indazol-3-yl)piperidin-1-yl)acetamide]"
0.862 µM,0.0011 µM,0.0158 µM,"Cc1cc2c(C3CCCNC3)n[nH]c2cc1-c1cc(C)c2ncnn2c1 (stereo not drawn) [Example 24, 8-methyl-6-(5-methyl-3-(piperidin-3-yl)-1H-indazol-6-yl)-[1,2,4]triazolo[1,5-a]pyridine]"
2.24 µM,0.0104 µM,0.263 µM,"Cc1cc2c(C3CCNCC3)n[nH]c2cc1-c1cc(C)c(=O)n(C)c1 [Example 25, 1,3-dimethyl-5-(5-methyl-3-(piperidin-4-yl)-1H-indazol-6-yl)pyridin-2(1H)-one]"
1.32 µM,0.0015 µM,0.0188 µM,"Cc1cc2c(C3CCNC3)n[nH]c2cc1-c1cc(C)c2ncnn2c1 (stereo not drawn) [Example 26, 8-methyl-6-(5-methyl-3-(pyrrolidin-3-yl)-1H-indazol-6-yl)-[1,2,4]triazolo[1,5-a]pyridine]"
0.65 µM,0.0259 µM,0.0066 µM,"Cc1cc(-c2cc(C)c3ncnn3c2)cc2[nH]nc(C3CCNCC3)c12 [Example 27, 8-methyl-6-(4-methyl-3-(piperidin-4-yl)-1H-indazol-6-yl)-[1,2,4]triazolo[1,5-a]pyridine]"
6.74 µM,0.0004 µM,0.0153 µM,"Cc1cc2c(C3CCC(NCCS(C)(=O)=O)CC3)n[nH]c2cc1-c1cc(C)c2ncnn2c1 (stereo not drawn) [Example 30, 4-(5-methyl-6-(8-methyl-[1,2,4]triazolo[1,5-a]pyridin-6-yl)-1H-indazol-3-yl)-N-(2-(methylsulfonyl)ethyl) cyclohexan-1-amine]"
6.12 µM,0.0006 µM,0.0398 µM,"Cc1cc2c(C3CCC(NCCS(C)(=O)=O)CC3)n[nH]c2cc1-c1cc(C)c2ncnn2c1 (stereo not drawn) [Example 31, 4-(5-methyl-6-(8-methyl-[1,2,4]triazolo[1,5-a]pyridin-6-yl)-1H-indazol-3-yl)-N-(2-(methylsulfonyl)ethyl)cyclohexan-1-amine]"
3.34 µM,0.0002 µM,0.007 µM,"Cc1cc2c(C3CCC(NC4CC4)CC3)n[nH]c2cc1-c1cc(C)c2ncnn2c1 (stereo not drawn) [Example 36, N-cyclopropyl-4-(5-methyl-6-(8-methyl-[1,2,4]triazolo[1,5-a]pyridin-6-yl)-1H-indazol-3-yl) cyclohexan-1-amine]"
5.14 µM,0.0004 µM,0.0124 µM,"Cc1cc2c(C3CCC(NC4CC4)CC3)n[nH]c2cc1-c1cc(C)c2ncnn2c1 (stereo not drawn) [Example 37, N-cyclopropyl-4-(5-methyl-6-(8-methyl-[1,2,4]triazolo[1,5-a]pyridin-6-yl)-1H-indazol-3-yl)cyclohexan-1-amine]"
13 µM,0.0046 µM,0.0234 µM,"Cc1cc2c(C3CCCN(C(=O)CN(C)C)C3)n[nH]c2cc1-c1cc(C)c2ncnn2c1 (stereo not drawn) [Example 40, 2-(dimethylamino)-1-(3-(5-methyl-6-(8-methyl-[1,2,4]triazolo[1,5-a]pyridin-6-yl)-1H-indazol-3-yl)piperidin-1-yl)ethan-1-one]"
7.3 µM,0.0019 µM,0.02 µM,"Cc1cc2c(C3CCCN(CC(=O)N(C)C)C3)n[nH]c2cc1-c1cc(C)c2ncnn2c1 (stereo not drawn) [Example 41, N,N-dimethyl-2-(3-(5-methyl-6-(8-methyl-[1,2,4]triazolo[1,5-a]pyridin-6-yl)-1H-indazol-3-yl)piperidin-1-yl) acetamide]"
14.5 µM,0.0009 µM,0.0836 µM,"Cc1cc2c(C3CCCN(C4COC4)C3)n[nH]c2cc1-c1cc(C)c2ncnn2c1 (stereo not drawn) [Example 42, 8-methyl-6-(5-methyl-3-(1-(oxetan-3-yl)piperidin-3-yl)-1H-indazol-6-yl)-[1,2,4]triazolo[1,5-a]pyridine]"
5.49 µM,0.0019 µM,0.0463 µM,"CNC1CCC(c2n[nH]c3cc(-c4cc(C)c5ncnn5c4)c(C)cc23)CC1 (stereo not drawn) [Example 44, N-methyl-4-(5-methyl-6-(8-methyl-[1,2,4]triazolo[1,5-a]pyridin-6-yl)-1H-indazol-3-yl)cyclohexan-1-amine]"

Structure (SMILES),IC50 (human TLR9),IC50 (human TLR8),IC50 (human TLR7)
"Cc1cc2c(C3CCN(C4CCOCC4)CC3)n[nH]c2cc1-c1cc(C)c2ncnn2c1 [Example 21, 8-methyl-6-(5-methyl-3-(1-(tetrahydro-2H-pyran-4-yl)piperidin-4-yl)-1H-indazol-6-yl)-[1,2,4]triazolo[1,5-a]pyridine]",4.54 µM,0.0007 µM,0.0262 µM
